Measurements: PubChem BioAssay (NCI)
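Cells were grown in 96-well plates and exposed to each compound for 48 hours at five concentrations; endpoints were interpolated linearly between bracketing concentrations, or set to the highest concentration if not reached. GI50 is the concentration that inhibits growth by half. TGI: total growth inhibition.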

Legend:
Assay in all cases: NCI-60 cell line screen, 48 h
[1] = system: 786-0 renal
[2] = system: A498 renal
[3] = system: A549 NSCLC
[4] = system: ACHN renal
[5] = system: CAKI-1 renal
[6] = system: CCRF-CEM leukemia
[7] = system: DLD-1 colon
[8] = system: DMS 114 small cell lung
[9] = system: DMS 273 small cell lung
[10] = system: EKVX NSCLC
[11] = system: HCT-116 colon
[12] = system: HL-60(TB) leukemia
[13] = system: HOP-62 NSCLC
[14] = system: HOP-92 NSCLC
[15] = system: HT29 colon
[16] = system: IGROV1 ovarian
[17] = system: K-562 leukemia
[18] = system: KM12 colon
[19] = system: KM20L2 colon
[20] = system: LXFL 529 NSCLC
[21] = system: M14 melanoma
[22] = system: M19-MEL melanoma
[23] = system: MOLT-4 leukemia
[24] = system: NCI-H226 lung
[25] = system: NCI-H23 lung
[26] = system: NCI-H460 lung
[27] = system: NCI-H522 lung
[28] = system: OVCAR-3 ovarian
[29] = system: OVCAR-4 ovarian
[30] = system: OVCAR-5 ovarian
[31] = system: OVCAR-8 ovarian
[32] = system: RXF 393 renal
[33] = system: SF-268 CNS
[34] = system: SF-295 CNS
[35] = system: SF-539 CNS
[36] = system: SK-MEL-2 melanoma
[37] = system: SK-MEL-28 melanoma
[38] = system: SK-MEL-5 melanoma
[39] = system: SK-OV-3 ovarian
[40] = system: SN12C renal
[41] = system: SNB-19 CNS
[42] = system: SNB-75 CNS
[43] = system: SNB-78 CNS
[44] = system: SR leukemia
[45] = system: SW-620 colon
[46] = system: TK-10 renal
[47] = system: U251 CNS
[48] = system: UACC-257 melanoma
[49] = system: UACC-62 melanoma
[50] = system: UO-31 renal
[51] = system: XF 498 CNS
[52] = system: COLO 205 colon
[53] = system: HCC-2998 colon
[54] = system: HCT-15 colon
[55] = system: HOP-18 NSCLC
[56] = system: LOX IMVI melanoma
[57] = system: MALME-3M melanoma
[58] = system: RPMI-8226 leukemia

Structure (SMILES): O=C1c2cc3c(cc2[C@@H]2NC4CCCC14O2)OCO3 (some centres undefined)
- TGI [1]: > 100 µM
- TGI [2]: > 100 µM
- TGI [3]: > 100 µM
- TGI [4]: > 100 µM
- TGI [5]: > 100 µM
- TGI [6]: > 100 µM
- TGI [7]: > 100 µM
- TGI [8]: > 100 µM
- TGI [9]: > 100 µM
- TGI [10]: > 100 µM
- TGI [11]: > 100 µM
- TGI [12]: > 100 µM
- TGI [13]: > 100 µM
- TGI [14]: > 100 µM
- TGI [15]: > 100 µM
- TGI [16]: > 100 µM
- TGI [17]: > 100 µM
- TGI [18]: > 100 µM
- TGI [19]: > 100 µM
- TGI [20]: > 100 µM
- TGI [21]: > 100 µM
- TGI [22]: > 100 µM
- TGI [23]: > 100 µM
- TGI [24]: > 100 µM
- TGI [25]: > 100 µM
- TGI [26]: > 100 µM
- TGI [27]: > 100 µM
- TGI [28]: > 100 µM
- TGI [29]: > 100 µM
- TGI [30]: > 100 µM
- TGI [31]: > 100 µM
- TGI [32]: > 100 µM
- TGI [33]: > 100 µM
- TGI [34]: > 100 µM
- TGI [35]: > 100 µM
- TGI [36]: > 100 µM
- TGI [37]: > 100 µM
- TGI [38]: > 100 µM
- TGI [39]: > 100 µM
- TGI [40]: > 100 µM
- TGI [41]: > 100 µM
- TGI [42]: > 100 µM
- TGI [43]: > 100 µM
- TGI [44]: > 100 µM
- TGI [45]: > 100 µM
- TGI [46]: > 100 µM
- TGI [47]: > 100 µM
- TGI [48]: > 100 µM
- TGI [49]: > 100 µM
- TGI [50]: > 100 µM
- TGI [51]: > 100 µM

Structure (SMILES): Cn1cc2ccccc2c1-c1nc(F)nc(Oc2ccc3c(c2)CC[C@@H]2C3CC[C@@]3(C)C2CC[C@@H]3O)n1 (some centres undefined)
- TGI [1]: 26.4 µM
- TGI [2]: 36 µM
- TGI [3]: 54.4 µM
- TGI [4]: 35.4 µM
- TGI [5]: 16.3 µM
- TGI [6]: > 100 µM
- TGI [52]: 41.8 µM
- TGI [7]: 14.6 µM
- GI50 [8]: 6.42 µM
- TGI [8]: 22 µM
- TGI [9]: > 58.5 µM
- TGI [10]: 37.3 µM
- TGI [53]: 33.5 µM
- TGI [11]: 36 µM
- TGI [54]: 12.2 µM
- TGI [12]: 21 µM
- TGI [55]: 34.2 µM
- TGI [13]: 27.9 µM
- TGI [14]: 14.7 µM
- TGI [15]: 35.8 µM
- TGI [16]: 15.3 µM
- TGI [17]: > 87 µM
- TGI [18]: 19.5 µM
- TGI [19]: 36.6 µM
- TGI [56]: 32.6 µM
- TGI [20]: 8.89 µM
- TGI [21]: 20.4 µM
- TGI [22]: > 56.5 µM
- TGI [57]: 35.5 µM
- TGI [23]: > 56.9 µM
- TGI [24]: 38.4 µM
- TGI [25]: 27.6 µM
- TGI [26]: 38.1 µM
- TGI [27]: 12.7 µM
- TGI [28]: 21.8 µM
- TGI [29]: 16.4 µM
- TGI [30]: 33.9 µM
- TGI [31]: 19.7 µM
- TGI [58]: 21.7 µM
- TGI [33]: 28.7 µM
- TGI [34]: 63.5 µM
- TGI [35]: 29.1 µM
- TGI [36]: 10.2 µM
- TGI [37]: 27.1 µM
- TGI [38]: 35.6 µM
- TGI [39]: 43.7 µM
- TGI [40]: 28.1 µM
- TGI [41]: 35.5 µM
- TGI [42]: 39.2 µM
- TGI [43]: > 61.4 µM
- TGI [44]: 21 µM
- TGI [45]: 17.6 µM
- TGI [46]: 18.3 µM
- TGI [47]: 13.2 µM
- TGI [48]: 45.8 µM
- TGI [49]: 32.7 µM
- TGI [50]: 50.9 µM

Structure (SMILES): COc1cc(OC)c(C#N)c(OC)c1C
- TGI [1]: > 100 µM
- TGI [2]: > 100 µM
- TGI [3]: > 100 µM
- TGI [4]: > 100 µM
- TGI [5]: > 100 µM
- TGI [6]: > 100 µM
- TGI [7]: > 100 µM
- TGI [8]: > 100 µM
- TGI [9]: > 100 µM
- TGI [10]: > 100 µM
- TGI [12]: > 100 µM
- TGI [13]: > 100 µM
- TGI [14]: > 100 µM
- TGI [15]: > 100 µM
- TGI [17]: > 100 µM
- TGI [18]: > 100 µM
- TGI [19]: > 100 µM
- TGI [56]: > 100 µM
- TGI [20]: > 100 µM
- TGI [22]: > 100 µM
- TGI [57]: > 100 µM
- TGI [23]: > 100 µM
- TGI [24]: > 100 µM
- TGI [25]: > 100 µM
- TGI [26]: > 100 µM
- TGI [29]: > 100 µM
- TGI [30]: > 100 µM
- TGI [31]: > 100 µM
- TGI [32]: > 100 µM
- TGI [33]: > 100 µM
- TGI [34]: > 100 µM
- TGI [35]: > 100 µM
- TGI [36]: > 100 µM
- TGI [37]: > 100 µM
- TGI [38]: > 100 µM
- TGI [39]: > 100 µM
- TGI [40]: > 100 µM
- TGI [41]: > 100 µM
- TGI [43]: > 100 µM
- TGI [44]: > 100 µM
- TGI [45]: > 100 µM
- TGI [46]: > 100 µM
- TGI [47]: > 100 µM
- TGI [48]: > 100 µM
- TGI [49]: > 100 µM
- TGI [50]: > 100 µM
- TGI [51]: > 100 µM

Structure (SMILES): CCOC(=O)c1oc2c(OC)cc(Cl)c3c2c1CCC3
- TGI [1]: > 100 µM
- TGI [2]: > 100 µM
- TGI [3]: > 100 µM
- TGI [4]: > 100 µM
- TGI [6]: > 100 µM
- TGI [52]: > 100 µM
- TGI [7]: > 100 µM
- TGI [8]: > 100 µM
- TGI [9]: > 100 µM
- TGI [10]: > 100 µM
- TGI [53]: > 100 µM
- TGI [11]: > 100 µM
- TGI [54]: > 100 µM
- TGI [12]: > 100 µM
- TGI [14]: 63.8 µM
- TGI [15]: > 100 µM
- TGI [16]: > 100 µM
- TGI [17]: > 100 µM
- TGI [18]: > 100 µM
- TGI [56]: > 100 µM
- TGI [20]: > 100 µM
- TGI [21]: > 100 µM
- TGI [22]: > 100 µM
- TGI [57]: > 100 µM
- TGI [23]: > 100 µM
- TGI [24]: 73.3 µM
- TGI [25]: > 100 µM
- TGI [26]: > 100 µM
- TGI [27]: > 100 µM
- TGI [28]: 28.3 µM
- TGI [29]: > 100 µM
- TGI [30]: > 100 µM
- TGI [31]: > 100 µM
- TGI [58]: > 100 µM
- TGI [32]: 65.3 µM
- TGI [33]: > 100 µM
- TGI [34]: > 100 µM
- TGI [35]: > 100 µM
- TGI [36]: > 100 µM
- TGI [37]: > 100 µM
- TGI [38]: > 100 µM
- TGI [39]: > 100 µM
- TGI [40]: > 100 µM
- TGI [41]: 97.6 µM
- TGI [42]: 76.5 µM
- TGI [43]: > 100 µM
- TGI [44]: > 100 µM
- TGI [45]: > 100 µM
- TGI [46]: 79.3 µM
- TGI [47]: > 100 µM
- TGI [48]: > 100 µM
- TGI [49]: > 100 µM
- TGI [50]: 65.1 µM
- TGI [51]: 80.6 µM

Structure (SMILES): CN(N=O)C(=O)N(N)CCCCC(NC(=O)OCc1ccccc1)C(=O)OCc1ccccc1 (centres undefined)
- TGI [1]: 66.5 µM
- TGI [2]: > 100 µM
- TGI [3]: > 100 µM
- TGI [4]: 34.2 µM
- TGI [5]: 72.3 µM
- TGI [6]: 38.5 µM
- TGI [52]: 45.6 µM
- TGI [7]: > 100 µM
- TGI [8]: > 100 µM
- TGI [9]: > 100 µM
- TGI [10]: > 100 µM
- TGI [53]: 63.4 µM
- TGI [11]: > 100 µM
- TGI [54]: > 100 µM
- TGI [12]: 16.2 µM
- TGI [13]: 34.2 µM
- TGI [14]: 34.5 µM
- TGI [15]: > 100 µM
- TGI [16]: > 100 µM
- TGI [17]: > 100 µM
- TGI [18]: > 100 µM
- TGI [19]: > 100 µM
- TGI [56]: 45.8 µM
- TGI [20]: > 100 µM
- TGI [21]: 70.7 µM
- TGI [22]: > 100 µM
- TGI [57]: 95.5 µM
- TGI [23]: 52.6 µM
- TGI [24]: 96.2 µM
- TGI [25]: 38.8 µM
- TGI [26]: > 100 µM
- TGI [27]: 24.9 µM
- TGI [28]: 57 µM
- TGI [29]: > 100 µM
- TGI [30]: > 100 µM
- TGI [31]: > 100 µM
- TGI [58]: > 100 µM
- TGI [32]: 51.6 µM
- TGI [34]: > 100 µM
- TGI [35]: 35.2 µM
- TGI [36]: > 100 µM
- TGI [37]: > 100 µM
- TGI [38]: > 100 µM
- TGI [39]: > 100 µM
- TGI [40]: 46.3 µM
- TGI [41]: > 100 µM
- TGI [42]: 62.8 µM
- TGI [43]: 85.9 µM
- TGI [45]: > 100 µM
- TGI [46]: > 100 µM
- TGI [47]: > 100 µM
- TGI [48]: 51.7 µM
- TGI [49]: 44.7 µM
- TGI [50]: 33.8 µM
- TGI [51]: 32.2 µM
